In brackets after ≈: the same amount, converted by molar mass.
Assays:
Format in all cases: functional
Haemophilus influenzae [1] = test: Antibacterial activity against Haemophilus influenzae 2762
Staphylococcus aureus [2] = test: Antibacterial activity against Staphylococcus aureus 29213
Staphylococcus aureus [3] = test: Antibacterial activity against Staphylococcus aureus 33591
[4] = tested on: Staphylococcus epidermidis; test: Antibacterial activity against Staphylococcus epidermidis 14990
[5] = tested on: Staphylococcus epidermidis; test: Antibacterial activity against Staphylococcus epidermidis f50654
Enterococcus faecalis [6] = test: Antibacterial activity against Enterococcus faecalis 29212
Enterococcus faecalis [7] = test: Antibacterial activity against Enterococcus faecalis bc11148-2
Streptococcus pyogenes = test: Antibacterial activity against Streptococcus pyogenes 8668
Streptococcus pneumoniae [8] = test: Antibacterial activity against Streptococcus pneumoniae 49619
Streptococcus pneumoniae [9] = test: Antibacterial activity against Streptococcus pneumoniae 297-749
Streptococcus pneumoniae [10] = test: Antibacterial activity against Streptococcus pneumoniae 280-962
Streptococcus pneumoniae [11] = test: Antibacterial activity against Streptococcus pneumoniae Erm 6849
Streptococcus pneumoniae [12] = test: Antibacterial activity against Streptococcus pneumoniae Mef 5654
Streptococcus pneumoniae [13] = test: Antibacterial activity against Streptococcus pneumoniae Mef S 3427
Haemophilus influenzae [14] = test: Antibacterial activity against Haemophilus influenzae 49247

Row | MIC (Haemophilus influenzae [1]) | MIC (Staphylococcus aureus [2]) | MIC (Staphylococcus aureus [3]) | MIC [4] | MIC [5] | MIC (Enterococcus faecalis [6]) | MIC (Enterococcus faecalis [7]) | MIC (Streptococcus pyogenes) | MIC (Streptococcus pneumoniae [8]) | MIC (Streptococcus pneumoniae [9]) | MIC (Streptococcus pneumoniae [10]) | MIC (Streptococcus pneumoniae [11]) | MIC (Streptococcus pneumoniae [12]) | MIC (Streptococcus pneumoniae [13]) | MIC (Haemophilus influenzae [14]) | SMILES
1 | 3.13 µg/mL (≈ 3.73 µM) | 0.2 µg/mL (≈ 0.238 µM) | 12.5 µg/mL (≈ 14.9 µM) | 0.2 µg/mL (≈ 0.238 µM) | 0.2 µg/mL (≈ 0.238 µM) | 0.1 µg/mL (≈ 0.119 µM) | 3.13 µg/mL (≈ 3.73 µM) | 0.1 µg/mL (≈ 0.119 µM) | ≤ 0.05 µg/mL | ≤ 0.05 µg/mL | ≤ 0.05 µg/mL | 3.13 µg/mL (≈ 3.73 µM) | 0.78 µg/mL (≈ 0.928 µM) | 0.2 µg/mL (≈ 0.238 µM) | 3.13 µg/mL (≈ 3.73 µM) | C=C[C@]12OC(=O)N(CCCCc3ccc(-c4cccnc4)s3)[C@@H]1[C@@H](C)C(=O)[C@H](C)C[C@@](C)(OC)[C@H](O[C@@H]1O[C@H](C)C[C@H](N(C)C)[C@H]1O)[C@@H](C)C(=O)[C@@H](C)C(=O)O[C@@H]2CC
2 | 0.78 µg/mL (≈ 0.93 µM) | 0.1 µg/mL (≈ 0.119 µM) | > 50 µg/mL | 0.2 µg/mL (≈ 0.238 µM) | 0.1 µg/mL (≈ 0.119 µM) | 0.1 µg/mL (≈ 0.119 µM) | 0.78 µg/mL (≈ 0.93 µM) | ≤ 0.05 µg/mL | ≤ 0.05 µg/mL | ≤ 0.05 µg/mL | ≤ 0.05 µg/mL | 0.2 µg/mL (≈ 0.238 µM) | 0.78 µg/mL (≈ 0.93 µM) | 0.2 µg/mL (≈ 0.238 µM) | 3.13 µg/mL (≈ 3.73 µM) | C=C[C@]12OC(=O)N(CCCCn3cnc(-c4cnc(C)cn4)c3)[C@@H]1[C@@H](C)C(=O)[C@H](C)C[C@@](C)(OC)[C@H](O[C@@H]1O[C@H](C)C[C@H](N(C)C)[C@H]1O)[C@@H](C)C(=O)[C@@H](C)C(=O)O[C@@H]2CC
3 | 0.78 µg/mL (≈ 0.914 µM) | 0.1 µg/mL (≈ 0.117 µM) | > 50 µg/mL | 0.2 µg/mL (≈ 0.234 µM) | 0.1 µg/mL (≈ 0.117 µM) | 0.1 µg/mL (≈ 0.117 µM) | 0.78 µg/mL (≈ 0.914 µM) | ≤ 0.05 µg/mL | ≤ 0.05 µg/mL | ≤ 0.05 µg/mL | ≤ 0.05 µg/mL | 0.4 µg/mL (≈ 0.469 µM) | 1.56 µg/mL (≈ 1.83 µM) | 0.2 µg/mL (≈ 0.234 µM) | 3.13 µg/mL (≈ 3.67 µM) | C=C[C@]12OC(=O)N(CCCCn3cnc(-c4ccc(NC)nc4)c3)[C@@H]1[C@@H](C)C(=O)[C@H](C)C[C@@](C)(OC)[C@H](O[C@@H]1O[C@H](C)C[C@H](N(C)C)[C@H]1O)[C@@H](C)C(=O)[C@@H](C)C(=O)O[C@@H]2CC
4 | 1.56 µg/mL (≈ 1.8 µM) | 0.2 µg/mL (≈ 0.23 µM) | > 50 µg/mL | 0.1 µg/mL (≈ 0.115 µM) | 0.4 µg/mL (≈ 0.461 µM) | 0.2 µg/mL (≈ 0.23 µM) | 1.56 µg/mL (≈ 1.8 µM) | ≤ 0.05 µg/mL | ≤ 0.05 µg/mL | ≤ 0.05 µg/mL | ≤ 0.05 µg/mL | 0.4 µg/mL (≈ 0.461 µM) | 1.56 µg/mL (≈ 1.8 µM) | 0.2 µg/mL (≈ 0.23 µM) | 6.25 µg/mL (≈ 7.2 µM) | C=C[C@]12OC(=O)N(CCCCn3cnc(-c4ccc(OC)nc4)c3C)[C@@H]1[C@@H](C)C(=O)[C@H](C)C[C@@](C)(OC)[C@H](O[C@@H]1O[C@H](C)C[C@H](N(C)C)[C@H]1O)[C@@H](C)C(=O)[C@@H](C)C(=O)O[C@@H]2CC
